Assay results as given in US20250002854A1, “METHODS OF GENERATING POPULATIONS OF TUMOUR-INFILTRATING T CELLS” (LYTIX BIOPHARMA AS, priority 2016, published 2025).
Square brackets hold non-standard residues; d marks the D form. Ends that are not written are not given here. Dip = N[C@H](C(=O)O)C(c1ccccc1)c1ccccc1

How the values were obtained:
[1] = system: A375 cells; test: Release of HMGB1 (Western blot); assay type: cell-based, human; settings: 35 μM, up to 60 min
Description: A375 cells were seeded with 3×10^5 cells/well in 6-well plates in a complete media, and allowed to adhere overnight. Cells were treated with LTX-315 or LTX-328 at 35 μM, and incubated at 37° C. and 5% CO2 for different time points (5, 10, 15, 30, 60 min), and negative controls were serum-free RPMI-1650. Supernatants (S) were collected and centrifuged at 1,400 g for five minutes, and cell lysates (L) were harvested after washing with PBS twice and then subsequently lysed using a 4×Sample buffer (Invitrogen, number), 0.1 M DTT (Sigma number) and water. Supernatants were concentrated using Amicon Ultra 50 K centrifugal filters (Millipore UFC505024), and the cell lysate was sonicated. Both supernatants and lysate were boiled and resolved in a 10% sodium dodecyl sulfate polyacrylamide gel electrophoresis (SDS-PAGE), and then electro transferred to a polyvindiline difluoride (PVDF) membrane (Millipore). The membrane was blocked in 5% milk and incubated with the HMGB1 antibody (rabbit, polyclonal, abcam ab 18256); the membrane was then rinsed several times with TBST, incubated with a horseradish peroxidase (HRP)-conjugated secondary antibody (abcam ab6721), rinsed again with TBST and then developed using WB Luminol Reagent (Santa Cruz Biotechnology, Heidelberg, Germany).

[2] = system: A375 cells; test: Release of cytochrome-C (ELISA); assay type: cell-based, human; settings: 35 μM
Description: A375 cells were seeded as with HMGB1 studies, and treated with 35 μM for different time points (5, 15, 45). Supernatants were collected and concentrated as with HMGB1 studies, and samples from the supernatants were analyzed using a 4.5 hour solid form Cytochrome C-Elisa kit (R&D Systems, USA, #DCTC0) following the manufacturer's description. Shortly thereafter, a 50% diluted sample was analyzed and the optical density was determined using a microplate reader set at 450 nm, and […]. A standard curve was generated for each set of samples assayed. Samples were run in four parallels, and the cytochrome-c released into the supernatant was expressed as a fold over the level of cytochrome-c in the supernatant of untreated cells.

[3] = system: A375 cells; test: Release of ATP (luciferase bioluminescence); assay type: cell-based, human; settings: 5 minutes, different concentrations
Description: The supernatant of LTX-315-treated A375 cells was analyzed using an Enliten ATP luciferase assay kit (Promega, USA). Cells were then seeded as with an ROS assay, and treated with LTX-315 in different incubation times, from 1 to 15 minutes with two parallels, which was then conducted three times. Negative controls were untreated A375 cells exposed to serum-free media alone. Samples were diluted at 1:50 and 1:100, and analyzed with a Luminoscan RT luminometer according to the manufacturer's protocol.

[4] = system: MCA205 sarcomas; test: T-cell depletion, tumour growth of MCA205 sarcomas; assay type: in vivo, C57BL/6 mice; settings: three intratumoural daily injections of 300 μg
Description: Mice were subcutaneously injected into the right flank with 1×10^6 MCA205 cells. Tumour cell lines were inoculated into C57BL/6 mice. Tumour surfaces (longest dimension×perpendicular dimension) were routinely monitored by caliper. When tumours reached a size of 20-25 mm^2 (day 0), mice were administered intratumourally with three consecutive daily injections of 300 μg LTX-315. In T-cell depletion experiments (FIG. 24), anti-CD4 and anti-CD8 monoclonal antibodies (mAbs) (GK1.5 and 53-6.72, respectively; 200 μg per mouse) or their isotype controls (LTF-2 and 2A3, respectively) were injected intraperitoneally 3 and 4 days before the first LTX-315 injection and continued every other 7 days. All mAbs for in vivo use were obtained from BioXcell (West Lebanon, NH, USA), using the recommended isotype control mAbs.

[5] = system: Murine B16 melanoma; test: immunoSEQ TCR repertoire characterisation after intratumoural LTX-315; assay type: in vivo, mice
Description: This study was carried out using an “immunoSEQ™” T cell receptor (TCR) repertoire characterisation platform by Adaptive Biotechnologies™. The platform combines novel multiplex PCR1 with highly optimized primer sets and deep sequencing techniques that exclusively target TCR genes. The immunoSEQ platform enables researchers to analyse the adaptive immune system with exceptional depth and specificity.
Murine B16 melanoma cells were harvested, washed and injected intradermally in ten mice. 8 days after tumour injection, peptide treatment was initiated using single intratumoural injections of LTX-315 (1.0 mg LTX-315/50 μl saline) once or twice in five mice. Vehicle control of saline only (0.9% NaCl in sterile H2O) was administered to the other five mice. Animals were then euthanized on day 15.
Tumour tissue (10 mg) and whole blood (150-200 μl) was taken from each mouse for TCR repertoire characterisation analysis. Blood samples provide information regarding the immune repertoire in the periphery, whilst the tumour samples provide a focused view of the repertoire.
Sequence analysis was carried out by Adaptive Biotechnologies™ at a survey-level resolution with respect to the tissue samples and at a deep-level resolution with respect to the blood samples.
Clonality quantitates the extent of mono-or oligoclonal expansion by measuring the shape of the clone frequency distribution. Values range from 0 to 1, where values approaching 1 indicate a nearly monoclonal population. FIG. 15 provides example distribution curves of populations with a clonality of 0.05 (A) and of 0.32 (B).

## K-K-W-W-K-K-W-Dip-K-NH2 (KKWWKKW[Dip]K-NH2) [LTX-315]
[1]
  HMGB1 translocation from cell lysate to supernatant: gradual translocation from the cell lysate to the supernatant detected
[2]
  cytochrome-C in the supernatant compared to untreated control cells: three times more
[3]
  ATP in the supernatant: detected in the supernatant as early as after 5 minutes of treatment
[4]
  antitumor effects in presence of antibodies depleting CD4+ and CD8+ T cells: completely abrogated the antitumor effects
[5]; Blood
  TCR Template Molecules: 135,283
  TCRs (T cell estimate) per nucleated cell (%): 17.4%
  Unique TCRs: 116,120
[5]; Tissue (tumour)
  TCR Template Molecules: 12,331
